Measured values from patent US7674802B2, “N-linked aryl heteroaryl inhibitors of LTA4H for treating inflammation” (deCODE genetics, ehf, priority 2005, dated 2010).
Where a name gives a salt, the structure may show the parent alone. Read-outs that look alike come from different tables or passages of the source. Values belong to the molecule of their own block, whether it stands above or below them.

Assays:
[1] = molecular target: T1, human LTA4 hydrolase (Homo sapiens, UniProt P09960); assay: In vitro assay testing inhibitory activity against purified recombinant human LTA4 hydrolase; format: biochemical
T1 construct: A human LTA4 hydrolase full-length cDNA clone (NM_000895) was purchased; His tag (own knowledge: pDEST17 adds an N-terminal 6xHis); made in house; host or cells: Escherichia coli BL21-AI
T1 sequence (P09960 1-611): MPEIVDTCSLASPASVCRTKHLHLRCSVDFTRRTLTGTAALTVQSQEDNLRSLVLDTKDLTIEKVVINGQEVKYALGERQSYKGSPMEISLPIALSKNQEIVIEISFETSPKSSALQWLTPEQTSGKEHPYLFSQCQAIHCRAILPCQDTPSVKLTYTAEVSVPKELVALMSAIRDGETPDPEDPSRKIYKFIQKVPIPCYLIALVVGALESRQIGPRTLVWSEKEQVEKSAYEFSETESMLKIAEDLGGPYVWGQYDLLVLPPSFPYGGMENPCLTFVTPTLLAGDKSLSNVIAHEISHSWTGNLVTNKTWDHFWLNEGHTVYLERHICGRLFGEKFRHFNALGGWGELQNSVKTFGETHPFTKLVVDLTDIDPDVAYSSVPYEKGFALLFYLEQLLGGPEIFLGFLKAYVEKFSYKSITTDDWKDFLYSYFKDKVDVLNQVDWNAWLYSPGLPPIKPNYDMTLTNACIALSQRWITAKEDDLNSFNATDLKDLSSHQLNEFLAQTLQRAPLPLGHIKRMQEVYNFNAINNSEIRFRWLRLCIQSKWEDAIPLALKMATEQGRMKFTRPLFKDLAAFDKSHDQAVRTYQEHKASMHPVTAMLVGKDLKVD
Source text: (1) In vitro Assay Testing Inhibitory Activity Against Purified Recombinant Human LTA4 Hydroase:
A human LTA4 hydrolase full-length cDNA clone (NM_000895) was purchased from OriGene Technologies (Rockville, Md.). The gene was amplified by polmerase chain reaction and transferred via pDONR201 into the bacterial expression vector pDEST17 by recombination (both plasmids from Invitrogen, Carlsbad, Calif.). The resulting construct was transformed into Escherichia coli BL21-AI (Invitrogen), and expression was induced by chemical induction with arabinose. The recombinant enzyme was purified by chromatography on a FPLC system (Amersham Biosciences, Uppsala, Sweden) using immobilized metal affinity chromatography (Ni-NTA Superflow, Qiagen, Hilden, Germany) and anion exchange chromatography (MonoQ HR 10/10, Amersham Biosciences).
(§1) The compounds of the invention were incubated in a series of dilutions with 200 nM of recombinant enzyme in assay buffer (100 mM Tris-HCl, 100 mM NaCl, 5 mg/ml fatty-acid free BSA, 10% DMSO, pH 8.0) for 10 min at room temperature to allow binding between LTA4 hydrolase and the inhibitors. LTA4 was prepared by alkaline hydrolysis of LTA4 methyl ester (Biomol, Plymouth Meeting, Pa., or Cayman Chemicals, Ann Arbor, Mich.). A solution of 10 μg of the ester was dried under a nitrogen stream and redissolved in 60 μl of a solution of 80% aceton and 20% 0.25 M NaOH.
After incubation for 40 min at room temperature the resulting approximately 500 μM tock of LTA4 was kept at −80° C. for no more than a few days prior to use.
Immediately before the assay, LTA4 was diluted to a concentration of 10 μM in assay buffer (without DMSO) and added to the reaction mixture to a final concentration of 2 μM to initiate the enzyme reaction. After incubation for 120 sec at room temperature, the reaction was stopped by ading 2 volumes of chilled quenching buffer, containing acetonitril with 1% acetic acid and 225 nM LTB4-d4 (Biomol). The samples were then kept at 4° C. over night to complete protein precipitation and centrifuged for 15 min at 1800 g. LTB4 formed was measured by LC-MS/MS using LTB4-d4 as an internal standard and an external LTB4 standard (Biomol) as reference. Briefly, the analyte was separated from LTB4 isomers formed by spontaneous hydrolysis of LTA4 using isocratic elution (modified protocol from Mueller et al. (1996), J. Biol. Chem. 271, 24345-24348) on a HPLC system (Waters, Milford, Mass.) and analyzed on a tandem quadrupole mass spectrometer (Waters). MRM transitions followed on 2 channels were 335.2>195.3 (LTB4) and 339.2>197.3 (LTB4-d4). Based on the amounts of LTB4 found at each inhibitor concentration, a dose-response curve was fitted to the data and an IC50 value was calculated.
as §1, with “NaOH. After incubation for 40 min at room temperature the resulting approximately 500 μM tock of LTA4 was kept at −80° C. for no more than a few days prior to use.” for “NaOH.”

[2] = test system: ionophore-induced LTB4 production; details: oral administration; cited from earlier work
[3] = test system: ionophore-induced LTB4 production; details: oral administration; cited from earlier work; remark: listed apart in the source
[4] = eight weeks of treatment, primate model; cited from earlier work
[5] = Table I, read-out: IC50 (μM) (hLTA4H)
[6] = Table IV, read-out: hLTA4H Enyzme IC 50
[7] = Table II, read-out: IC50 (μM)(hLTA4H)
[8] = Table III, read-out: IC50 (μM) (hLTA4H)
[9] = Table V, read-out: hLTA4H Enzyme IC50

IC50 [1, 5]: < 5 µM
IC50 [1, 6]: < 5 µM
Structure (SMILES): CN(CCOc1ccc(-n2nc3ccccc3c2Cl)cc1)CCC(=O)O [Example 2, 3-({2-[4-(3-Chloro-indazol-2-yl)-phenoxy]-ethyl}-methyl-amino)-propionic acid hydrochloride]

IC50 [1, 7]: < 5 µM
IC50 [1, 6]: < 5 µM
Structure (SMILES): Clc1c2ccccc2nn1-c1ccc(OCCN2CCCCC2)cc1 [Example 1, 3-Chloro-2-[4-(2-piperidin-1-yl-ethoxy)-phenyl]-2H-idazole]

IC50 [1, 8]: < 5 µM
IC50 [1, 6]: < 5 µM
Structure (SMILES): Clc1c2ccccc2nn1-c1ccc(OC[C@@H]2CCCN2)cc1 [Example 13, 3-Chloro-2-[4-((S)-1-pyrrolidin-2-ylmethoxy)-phenyl]-2H-indazole hydrochloride]

IC50 [1, 8]: < 5 µM
IC50 [1, 6]: < 5 µM
Structure (SMILES): O=C(O)CN1CCC[C@H]1COc1ccc(-n2nc3ccccc3c2Cl)cc1 [Example 18, {(S)-2-[4-(3-Chloro-indazol-2-yl)-phenoxymethyl]-pyrrolidin-1-yl}-acetic acid Hydrochloride]

IC50 [1, 5]: < 5 µM
IC50 [1, 6]: < 5 µM
Structure (SMILES): CNCCCOc1ccc(-n2nc3ccccc3c2Cl)cc1 [Example 4, {3-[4-(3-Chloro-indazol-2-yl)-phenoxy]-propyl}-methyl-amine hydrochloride]

IC50 [1, 8]: < 5 µM
IC50 [1, 6]: < 5 µM
Structure (SMILES): Clc1c2ccccc2nn1-c1ccc(OC[C@H]2CCCN2)cc1 [Example 12, 3-Chloro-2-[4-((R)-1-pyrrolidin-2-ylmethoxy)-phenyl]-2H-indazole]

IC50 [1, 9]: 5 to 20 µM
Structure (SMILES): c1ccc2c(c1)cnn2-c1ccc(OC[C@H]2CCCN2)cc1

IC50 [1, 9]: < 5 µM
Structure (SMILES): O=C1c2ccccc2C(=O)N1c1ccc(OC[C@H]2CCCN2)cc1

IC50 [1, 9]: < 5 µM
Structure (SMILES): O=C1c2ccccc2C(=O)N1c1ccc(OCCN2CCCCC2)cc1

Structure (SMILES): CN(CCCOc1ccc(Cc2ccccc2)cc1)CCC(=O)O.Cl [SC57461]
inhibition of ionophore-induced LTB4 production in mouse blood ex vivo [2]: inhibition of ionophore-induced LTB4 production
inhibition of ionophore-induced LTB4 production in rat peritoneum in vivo [3]: inhibition of ionophore-induced LTB4 production
colitis symptoms [4]: significantly improved colitis symptoms

IC50 [1, 8]: < 5 µM
IC50 [1, 6]: < 5 µM
Structure (SMILES): O=C(O)CCCN1CCC[C@@H]1COc1ccc(-n2nc3ccccc3c2Cl)cc1 [Example 17, 4-{(R)-2-[4-(3-Chloro-indazol-2-yl)-phenoxymethyl]-pyrrolidin-1-yl}-butyric acid Hydrochloride]

IC50 [1, 8]: < 5 µM
IC50 [1, 6]: < 5 µM
Structure (SMILES): O=C(O)CN1CCC[C@@H]1COc1ccc(-n2nc3ccccc3c2Cl)cc1 [Example 15, {(R)-2-[4-(3-Chloro-indazol-2-yl)-phenoxymethyl]-pyrrolidin-1-yl}-acetic acid Hydrochloride]

IC50 [1, 8]: < 5 µM
IC50 [1, 6]: < 5 µM
Structure (SMILES): O=C(O)CCCN1CCC[C@H]1COc1ccc(-n2nc3ccccc3c2Cl)cc1 [Example 19, 4-{(S)-2-[4-(3-Chloro-indazol-2-yl)-phenoxymethyl]-pyrrolidin-1-yl}-butyric acid Hydrochloride]

IC50 [1, 9]: 5 to 20 µM
Structure (SMILES): CN1CCC[C@@H]1COc1ccc(N2Cc3ccccc3C2)cc1

IC50 [1, 9]: > 20 µM
Structure (SMILES): Cc1cn(-c2ccc(OC[C@H]3CCCN3)cc2)c2ccccc12

IC50 [1, 7]: < 5 µM
IC50 [1, 6]: < 5 µM
Structure (SMILES): CNC(=O)C1CCN(CCCOc2ccc(-n3nc4ccccc4c3Cl)cc2)CC1 [Example 9, 1-{3-[4-(3-Chloro-indazol-2-yl)-phenoxy]-propyl}-piperidine-4-carboxylic acid methylamide]

IC50 [1, 8]: < 5 µM
IC50 [1, 6]: < 5 µM
Structure (SMILES): O=C(O)CCN1CCC[C@@H]1COc1ccc(-n2nc3ccccc3c2Cl)cc1 [Example 16, 3-{(R)-2-[4-(3-Chloro-indazol-2-yl)-phenoxymethyl]-pyrrolidin-1-yl}-propionic acid Hydrochloride]

IC50 [1, 7]: < 5 µM
IC50 [1, 6]: < 5 µM
Structure (SMILES): OCC1CCN(CCCOc2ccc(-n3nc4ccccc4c3Cl)cc2)CC1 [Example 11, (1-{3-[4-(3-Chloro-indazol-2-yl)-phenoxy]-propyl}-piperidin-4-yl)-methanol]

IC50 [1, 5]: < 5 µM
IC50 [1, 6]: < 5 µM
Structure (SMILES): CN(CCCOc1ccc(-n2nc3ccccc3c2Cl)cc1)CCCC(=O)O [Example 6, 4-({3-[4-(3-Chloro-indazol-2-yl)-phenoxy]-propyl}-methyl-amino)butyric acid Hydrochloride]

IC50 [1, 9]: > 20 µM
Structure (SMILES): CC1Cc2ccccc2N1c1ccc(OC[C@H]2CCCN2)cc1 (stereo partly shown)

IC50 [1, 7]: < 5 µM
IC50 [1, 6]: < 5 µM
Structure (SMILES): NC(=O)C1CCN(CCCOc2ccc(-n3nc4ccccc4c3Cl)cc2)CC1 [Example 10, 1-{3-[4-(3-Chloro-indazol-2-yl)-phenoxy]-propyl}-piperidine-4-carboxylic acid amide]

IC50 [1, 7]: < 5 µM
IC50 [1, 6]: < 5 µM
Structure (SMILES): O=C(O)C1CCN(CCCOc2ccc(-n3nc4ccccc4c3Cl)cc2)CC1 [Example 8, 1-{3-[4-(3-Chloro-indazol-2-yl)-phenoxy]-propyl}-piperidine-4-carboxylic acid hydrochloride]

IC50 [1, 5]: < 5 µM
IC50 [1, 6]: < 5 µM
Structure (SMILES): CN(CCCC(=O)O)CCOc1ccc(-n2nc3ccccc3c2Cl)cc1 [Example 3, 4-({2-[4-(3-Chloro-indazol-2-yl)-phenoxy]-ethyl}-methyl-amino)butyric acid hydrchloride salt]

IC50 [1, 5]: < 5 µM
IC50 [1, 6]: < 5 µM
Structure (SMILES): CN(CCCOc1ccc(-n2nc3ccccc3c2Cl)cc1)CCC(=O)O [Example 5, 3-({3-[4-(3-Chloro-indazol-2-yl)-phenoxy]-propyl}-methyl-amino)-propionic acid hydrochloride salt]
